Experimental data as given in patent US20060069110A1, “Substituted heterocyclic compounds and methods of use” (priority 2004, published 2006).

test system: THP1 cells (LPS induced TNF release); experiment: Lipopolysaccharide-Activated THP1 Cell TNF Production Assay; type: cell-based; details: Homo sapiens, THP-1; THP1 cells, bacterial LPS, secreted TNF-α after 3 h at 37° C.; read-out: IC50 values in the THP1 cell assay (LPS induced TNF release)
Method: Lipopolysaccharide-Activated THP1 Cell TNF Production Assay
THP1 cells are resuspended in fresh THP1 media (RPMI 1640, 10% heat-inactivated FBS, 1×PGS, 1×NEAA, plus 30 μM βME) at a concentration of 1E6/mL. One hundred microliters of cells per well are plated in a polystyrene 96-well tissue culture. One microgram per mL of bacterial LPS is prepared in THP1 media and is transferred to the wells. Test compounds are dissolved in 100% DMSO and are serially diluted 3 fold in a polypropylene 96-well microtiter plate (drug plate). HI control and LO control wells contain only DMSO. One microliter of test compound from the drug plate followed by 10 μL of LPS are transferred to the cell plate. The treated cells are induced to synthesize and secrete TNF-α at 37° C. for 3 h. Forty microliters of conditioned media are transferred to a 96-well polypropylene plate containing 110 μL of ECL buffer (50 mM Tris-HCl pH 8.0, 100 mM NaCl, 0.05% Tween 20, 0.05% NaN3 and 1% FBS) supplemented with 0.44 nM MAB610 monoclonal Ab (R&D Systems), 0.34 nM ruthenylated AF210NA polyclonal Ab (R&D Systems) and 44 μg/mL sheep anti-mouse M280 Dynabeads (Dynal). After a 2 h incubation at RT with shaking, the reaction is read on the ECL M8 Instrument (IGEN Inc.). A low voltage is applied to the ruthenylated TNF-α immune complexes, which in the presence of TPA (the active component in Origlo), results in a cyclical redox reaction generating light at […]. The amount of secreted TNF-α in the presence of compound compared with that in the presence of DMSO vehicle alone (HI control) is calculated using the formula: % control (POC)=(cpd−average LO)/(average HI−average LO)*100. Data (consisting of POC and inhibitor concentration in μM) is fitted to a 4-parameter equation (y=A+((B−A)/(1+((×/C)ôD))), where A is the minimum y (POC) value, B is the maximum y (POC), C is the x (cpd concentration) at the point of inflection and D is the slope factor) using a Levenburg-Marquardt non-linear regression algorithm.

IC50, ≤ 20 µM:
CNC(=O)[C@@H](Cc1ccccc1)Nc1nccc(N(C)c2ccnc(-c3ccccc3)n2)n1 [Example 46, (R)-N-Methyl-2-(4-(methyl(2-phenylpyrimidin-4-yl)amino)pyrimidin-2-ylamino)-3-phenylpropanamide]
CN(c1ccnc(N[C@@H](CN)Cc2ccccc2)n1)c1ccnc(-c2ccccc2)n1 [Example 48, (R)-N^2-(1-Amino-3-phenylpropan-2-yl)-N^4-methyl-N^4-(2-phenylpyrimidin-4-yl)pyrimidine-2,4-diamine]
CC(C)NC[C@@H](Cc1ccccc1)Nc1nccc(N(C)c2ccnc(-c3ccccc3)n2)n1 [Example 49, (R)-N^2-(3-(Isopropylamino)-1-phenylpropan-2-yl)-N^4-methyl-N^4-(2-phenyl-pyrimidin-4-yl)pyrimidine-2,4-diamine]
CN(c1ccnc(N[C@@H](CNCCN)Cc2ccccc2)n1)c1ccnc(-c2ccccc2)n1 [Example 50, (R)-N^2-(3-(2-Aminoethylamino)-1-phenylpropan-2-yl)-N^4-methyl-N^4-(2-phenyl-pyrimidin-4-yl)pyrimidine-2,4-diamine]
CN(c1ccnc(N[C@@H](CNC(=O)CN)Cc2ccccc2)n1)c1ccnc(-c2ccccc2)n1 [Example 52, (R)-2-Amino-N-(2-(4-(methyl(2-phenylpyrimidin-4-yl)amino)pyrimidin-2-ylamino)-3-phenylpropyl)acetamide]
CN(c1ccnc(N[C@H](Cc2ccccc2)CN2CCOCC2)n1)c1ccnc(-c2ccccc2)n1 [Example 53, (R)-N^4-methyl-N^2-(3-morpholino-1-phenylpropan-2-yl)-N^4-(2-phenylpyrimidin-4-yl)pyrimidine-2,4-diamine]
CN(c1ccnc(N[C@@H](CCN2CCOCC2)Cc2ccccc2)n1)c1ccnc(-c2ccccc2)n1 [Example 54, (R)-N^4-Methyl-N^2-(4-morpholino-1-phenylbutan-2-yl)-N^4-(2-phenylpyrimidin-4-yl)pyrimidine-2,4-diamine]
CN(c1ccnc(NCCc2ccccc2Cl)n1)c1nccc(C(C)(C)C)n1 [Example 55, N^2-(2-Chlorophenethyl)-N^4-(4-tert-butylpyrimidin-2-yl)-N^4-methylpyrimidine-2,4-diamine]
CN(c1ccnc(N[C@@H](CCN)Cc2ccccc2)n1)c1ccnc(-c2ccccc2)n1 [Example 57, (R)-N^2-(4-Amino-1-phenylbutan-2-yl)-N^4-methyl-N^4-(2-phenylpyrimidin-4-yl)pyrimidine-2,4-diamine]
CC(C)NCC[C@@H](Cc1ccccc1)Nc1nccc(N(C)c2ccnc(-c3ccccc3)n2)n1 [Example 58, (R)-N^2-(4-(Isopropylamino)-1-phenylbutan-2-yl)-N^4-methyl-N^4-(2-phenylpyrimidin-4-yl)pyrimidine-2,4-diamine]
CN(c1ccnc(N[C@@H](CCNC2CC2)Cc2ccccc2)n1)c1ccnc(-c2ccccc2)n1 [Example 59, (R)-N^2-(4-(Cyclopropylamino)-1-phenylbutan-2-yl)-N^4-methyl-N^4-(2-phenyl-pyrimidin-4-yl)pyrimidine-2,4-diamine]
CC(C)[C@H](CC(=O)N1CCOCC1)Nc1nccc(N(C)c2ccnc(-c3ccccc3)n2)n1 [Example 61]
CC(C)[C@H](CCN1CCOCC1)Nc1nccc(N(C)c2ccnc(-c3ccccc3)n2)n1 [Example 62, (S)-N^4-Methyl-N^2-(4-methyl-1-morpholinopentan-3-yl)-N^4-(2-phenylpyrimidin-4-yl)pyrimidine-2,4-diamine]
CN(c1ccnc(NCCc2cccnc2)n1)c1nc(-c2ccccc2)ncc1Br [Example 63, N^4-(5-Bromo-2-phenylpyrimidin-4-yl)-N^4-methyl-N^2-(2-(pyridin-3-yl)ethyl)-pyrimidine-2,4-diamine]
CN(c1ccnc(NCCc2cccnc2)n1)c1nc(-c2ccccc2)ncc1C(N)=O [Example 64, 4-(Methyl(2-(2-(pyridin-3-yl)ethylamino)pyrimidin-4-yl)amino)-2-phenyl-pyrimidine-5-carboxamide]
NC(=O)c1cnc(-c2ccccc2)nc1Nc1ccnc(NCCc2cccnc2)n1 [Example 65, 2-Phenyl-4-(2-(2-(pyridin-3-yl)ethylamino)pyrimidin-4-ylamino)pyrimidine-5-carboxamide]
C[C@@H](Cc1cccc(CN)c1)Nc1nccc(N(C)c2nc(-c3ccccc3)ncc2F)n1 [Example 66, (S)-N^2-(1-(3-(Aminomethyl)phenyl)propan-2-yl)-N^4-(5-fluoro-2-phenylpyrimidin-4-yl)-N^4-methylpyrimidine-2,4-diamine]
CN(c1ccnc(N[C@H]2CC[C@H](N)CC2)n1)c1nc(-c2ccccc2)ncc1F [Example 67, N^2-(4-Aminocyclohexyl)-N^4-(5-fluoro-2-phenylpyrimidin-4-yl)-N^4-methyl-pyrimidine-2,4-diamine]
C[C@@H](Cc1cccc(CN)c1)Nc1nccc(N(C)c2nc(-c3ccccc3F)ncc2F)n1 [Example 68, N^2-((S)-1-(3-(Aminomethyl)phenyl)propan-2-yl)-N^4-(5-fluoro-2-(2-fluorophenyl)-pyrimidin-4-yl)-N^4-methylpyrimidine-2,4-diamine]
CN(c1nc(NCCc2cccnc2)ncc1F)c1nc(-c2ccccc2)ncc1F [Example 69, 5-Fluoro-N^4-(5-fluoro-2-phenylpyrimidin-4-yl)-N^4-methyl-N^2-(2-(pyridin-3-yl)-ethyl)pyrimidine-2,4-diamine]
CN(c1ccnc(-c2ccccc2)n1)c1nc(NCCc2cccnc2)ncc1F [Example 70, 5-Fluoro-N^4-methyl-N^4-(2-phenylpyrimidin-4-yl)-N^2-(2-(pyridin-3-yl)ethyl)-pyrimidine-2,4-diamine]
CN(c1ccnc(NCCc2cccnc2)n1)c1ccnc(-c2ccccc2F)n1 [Example 71, N^4-(2-(2-Fluorophenyl)pyrimidin-4-yl)-N^4-methyl-N^2-(2-(pyridin-3-yl)ethyl)-pyrimidine-2,4-diamine]
CN(c1ccnc(NCCc2cccnc2)n1)c1ccnc(-c2cccc(F)c2)n1 [Example 72, N^4-(2-(3-Fluorophenyl)pyrimidin-4-yl)-N^4-methyl-N^2-(2-(pyridin-3-yl)ethyl)-pyrimidine-2,4-diamine]
CN(c1ccnc(NCCc2cccnc2)n1)c1ccnc(-c2ccc(F)cc2)n1 [Example 73, N^4-(2-(4-Fluorophenyl)pyrimidin-4-yl)-N^4-methyl-N^2-(2-(pyridin-3-yl)ethyl)-pyrimidine-2,4-diamine]
CN(c1ccnc(NCCc2cccnc2)n1)c1ccnc(-c2ccsc2)n1 [Example 74, N^4-Methyl-N^2-(2-(pyridin-3-yl)ethyl)-N^4-(2-(thiophen-3-yl)pyrimidin-4-yl)-pyrimidine-2,4-diamine]
CN(c1ccnc(NCCc2cccnc2)n1)c1ccnc(-c2ccccc2C(F)(F)F)n1 [Example 75, N^4-Methyl-N^2-(2-(pyridin-3-yl)ethyl)-N^4-(2-(2-(trifluoromethyl)phenyl)pyrimidin-4-yl)pyrimidine-2,4-diamine]
CN(c1ccnc(NCCc2cccnc2)n1)c1ccnc(-c2cccc(F)c2F)n1 [Example 76, N^4-(2-(2,3-Difluorophenyl)pyrimidin-4-yl)-N^4-methyl-N^2-(2-(pyridin-3-yl)ethyl)-pyrimidine-2,4-diamine]
CN(c1ccnc(NCCc2cccnc2)n1)c1ccnc(-c2ccc(F)cc2F)n1 [Example 77, N^4-(2-(2,4-Difluorophenyl)pyrimidin-4-yl)-N^4-methyl-N^2-(2-(pyridin-3-yl)ethyl)-pyrimidine-2,4-diamine]
CN(c1ccnc(NCCc2cccnc2)n1)c1ccnc(-c2cc(F)ccc2F)n1 [Example 78, N^4-(2-(2,5-Difluorophenyl)pyrimidin-4-yl)-N^4-methyl-N^2-(2-(pyridin-3-yl)ethyl)-pyrimidine-2,4-diamine]
CN(c1ccnc(NCCc2cccnc2)n1)c1ccnc(-c2cccs2)n1 [Example 79, N^4-Methyl-N^2-(2-(pyridin-3-yl)ethyl)-N^4-(2-(thiophen-2-yl)pyrimidin-4-yl)-pyrimidine-2,4-diamine]
C[C@@H](Cc1cccc(CN)c1)Nc1nccc(N(C)c2ccnc(-c3ccccc3F)n2)n1 [Example 83, N^2-((S)-1-(3-(Aminomethyl)phenyl)propan-2-yl)-N^4-(2-(2-fluorophenyl)pyrimidin-4-yl)-N^4-methylpyrimidine-2,4-diamine]
